# Measurements published in ChEMBL document CHEMBL1140357, “Discovery of hydroxamic acid analogs as dual inhibitors of phosphodiesterase-1 and -5” (Bioorg Med Chem Lett, 2005).
# Experiments:
# Phosphodiesterase 1 = Phosphodiesterase 1 (Homo sapiens, UniProt P54750+Q01064+Q14123); experiment: Inhibitory concentration against Phosphodiesterase type 1; type: protein assay
# [1] = molecular target: cGMP-specific 3',5'-cyclic phosphodiesterase (Homo sapiens, UniProt O76074); experiment: Inhibitory concentration against Phosphodiesterase type 5
# Phosphodiesterase 3 = Phosphodiesterase 3 (Homo sapiens, UniProt Q14432+Q13370); experiment: Inhibitory concentration against Phosphodiesterase type 3; type: protein assay
# Rattus norvegicus = organism: Rattus norvegicus; experiment: Effective concentration required for vasodilatory effect in isolated vessel of rat; type: functional
Compound,IC50 (Phosphodiesterase 1) [µM],IC50 [1] [µM],IC50 (Phosphodiesterase 3) [µM],EC50 (Rattus norvegicus) [µM]
O=C(Cc1csc(NC(=O)c2ccccc2F)n1)NO,> 10,7.56,,
Cc1sc(NC(=O)c2cccc(COc3ccccc3)n2)nc1CC(=O)NO,4.52,0.04,,
CCc1cc(C(C)=O)c(O)cc1OCc1cccc(C(=O)NC(Cc2ccc(O)cc2)C(=O)O)n1 (stereo not given),,3.68,,
O=C(Cc1csc(NC(=O)c2cnccc2Oc2ccc(Cl)cc2)n1)NO,2.67,0.32,,
O=C(Nc1nc(C2(C(=O)O)CCOCC2)cs1)c1cccc(COc2ccccc2)n1,> 10,10,,
O=C(Cc1csc(NC(=O)c2cccc3ccccc23)n1)NO,1,1.1,,
COc1ccc(NC(=O)c2cccc(COc3ccccc3)n2)cc1C(=O)NO,> 10,3.5,,
O=C(Cc1csc(NC(=O)c2ccc3ccccc3n2)n1)NO,8,0.14,,
CCc1cc(C(C)=O)c(O)cc1OCc1cccc(C(=O)NC(O)CC(=O)OC)n1 (stereo not given),,6.07,,
Cc1nc(NC(=O)c2cccc(COc3ccccc3)n2)sc1C(=O)NO,> 10,0.77,,
Cc1c(NC(=O)c2cccc(COc3ccccc3)n2)cccc1C(=O)NO,> 10,2.66,,
O=C(Cc1cccc(NC(=O)c2cccc(COc3ccccc3)n2)c1)NO,2.41,0.013,,
CCc1cc(C(C)=O)c(O)cc1OCc1cccc(C(=O)NC(CO)C(=O)O)c1 (stereo not given),,0.68,,
O=C(Nc1nc(C2(C(=O)NO)CCOCC2)cs1)c1cccc(COc2ccccc2)n1,2.93,2.49,,
CCCCC(C(=O)O)c1csc(NC(=O)c2cccc(COc3ccccc3)n2)n1 (stereo not given),> 10,6.49,,
CC(C)CC(C(=O)O)c1csc(NC(=O)c2cccc(COc3ccccc3)n2)n1 (stereo not given),> 10,6.25,,
CCc1cc(C(C)=O)c(O)cc1OCc1cccc(C(=O)NC(C)C(=O)OC)c1 (stereo not given),,2.13,,
O=C(O)CCC(CCC(=O)O)(C(=O)O)c1csc(NC(=O)c2cccc(COc3ccccc3)n2)n1,> 10,9.28,,
CCc1cc(C(C)=O)c(O)cc1OCc1cccc(C(=O)Nc2nn[nH]n2)n1,,5.15,,
O=C(Cc1csc(NC(=O)COc2ccccc2)n1)NO,> 10,5.62,,
O=C(Cc1csc(NC(=O)CCC(=O)c2ccccc2)n1)NO,> 10,4.52,,
CCc1cc(C(C)=O)c(O)cc1OCc1cccc(C(=O)N[C@@H](C)C(=O)O)n1,,0.46,,

Compound,IC50 (Phosphodiesterase 1) [µM],IC50 [1] [µM],IC50 (Phosphodiesterase 3) [µM],EC50 (Rattus norvegicus) [µM]
O=C(Nc1nc(C2(C(=O)O)CC2)cs1)c1cccc(COc2ccccc2)n1,> 10,8.58,,
O=C(Cc1csc(NC(=O)Cc2cccc(C(F)(F)F)c2)n1)NO,> 10,2.07,,
O=C(Cc1csc(NC(=O)Nc2cccc3ccccc23)n1)NO,> 10,3.81,,
CCc1cc(C(C)=O)c(O)cc1OCc1cccc(C(=O)NC(C)C(=O)O)c1 (stereo not given),,0.13,,
O=C(Cc1csc(NC(=O)c2ccccc2)n1)NO,> 10,3.25,,
C=CCN(CCC(=O)O)C(=O)c1cccc(COc2cc(O)c(C(C)=O)cc2CC)n1,,0.87,,
COc1ccc2c(c1)OC(=O)CC2CC(=O)Nc1nc(CC(=O)NO)cs1 (stereo not given),> 10,5.99,,
O=C(Cc1csc(NC(=O)c2ccc(Cl)cc2Cl)n1)NO,> 10,4.25,,
O=C(Nc1nc(C(Cc2ccccc2)C(=O)O)cs1)c1cccc(COc2ccccc2)n1 (stereo not given),> 10,10,,
CCOC(=O)CC(NC(=O)c1cccc(COc2cc(O)c(C(C)=O)cc2CC)c1)C(=O)OCC (stereo not given),,0.65,,
O=C(Cc1csc(NC(=O)c2ccccn2)n1)NO,7.1,3.2,,
CCc1cc(C(C)=O)c(O)cc1OCc1cccc(C(=O)Nc2nc(CC(=O)NO)cs2)n1,0.087,0.026,1.3,0.9
CC(C)C(C(=O)NO)c1csc(NC(=O)c2cccc(COc3ccccc3)n2)n1 (stereo not given),3.9,2.42,,
O=C(Nc1nc(C(Cc2ccccc2)C(=O)NO)cs1)c1cccc(COc2ccccc2)n1 (stereo not given),1.36,0.83,,
O=C(Cc1csc(NC(=O)c2cnc3ccccc3n2)n1)NO,> 10,1.84,,
CCc1cc(C(C)=O)c(O)cc1OCc1cccc(C(=O)N(CCCCCCCCC(N)=O)C(C)CC)n1 (stereo not given),,3.3,,
CCCCCCC(C(=O)O)c1csc(NC(=O)c2cccc(COc3ccccc3)n2)n1 (stereo not given),> 10,4.58,,
CCc1cc(C(C)=O)c(O)cc1OCc1cccc(C(=O)NCC(=O)O)c1,,0.92,,
CCc1cc(C(C)=O)c(O)cc1OCc1cccc(C(=O)NC(CC(=O)O)c2ccccc2)n1 (stereo not given),,1.45,,
CC(C)(C(=O)NO)c1csc(NC(=O)c2cccc(COc3ccccc3)n2)n1,0.67,0.52,,
O=C(Nc1nc(C2(C(=O)NO)CC2)cs1)c1cccc(COc2ccccc2)n1,0.63,0.89,,
CCC(=O)OCC(NC(=O)c1cccc(COc2cc(O)c(C(C)=O)cc2CC)n1)C(=O)O (stereo not given),,6.68,,

Compound,IC50 (Phosphodiesterase 1) [µM],IC50 [1] [µM],IC50 (Phosphodiesterase 3) [µM],EC50 (Rattus norvegicus) [µM]
Cc1cc(C)cc(C(=O)Nc2nc(CC(=O)NO)cs2)c1,> 10,1.83,,
CCCCCCCCCCCC(=O)Nc1nc(CC(=O)NO)cs1,> 10,1.8,,
O=C(Cc1cccc(NC(=O)c2cccc(COc3ccccc3)n2)n1)NO,> 10,0.04,,
CCc1cc(C(C)=O)c(O)cc1OCc1cccc(C(=O)N(CC)CCCCCCCCC(N)=O)n1,,1.21,,
CCc1cc(C(C)=O)c(O)cc1OCc1cccc(C(=O)NCCC(=O)O)n1,,0.27,,
CCC(C(=O)Nc1nc(CC(=O)NO)cs1)c1ccccc1 (stereo not given),> 10,6.19,,
CN(C)c1cccc(C(=O)Nc2nc(CC(=O)NO)cs2)c1,> 10,5.47,,
O=C(O)Cc1cccc(NC(=O)c2cccc(COc3ccccc3)n2)n1,> 10,9.43,,
COc1ccc2c(c1)C(CC(=O)Nc1nc(CC(=O)NO)cs1)CC2=O (stereo not given),> 10,3.16,,
O=C(Cc1csc(NC(=O)c2cccc(C(=O)c3ccccc3)c2)n1)NO,1.72,3.41,,
CCc1cc(C(C)=O)c(O)cc1OCc1cccc(C(=O)NC(C(=O)O)C(C)C)n1 (stereo not given),,1.24,,
O=C(NO)C(=O)c1csc(NC(=O)c2cccc(COc3ccccc3)n2)n1,> 10,2.2,,
O=C(O)Cc1cccc(NC(=O)c2cccc(COc3ccccc3)n2)c1,> 10,10,,
O=C(Cc1csc(NC(=O)C2C=CN(c3ccccc3)c3ccccc32)n1)NO (stereo not given),0.38,0.79,,
Cc1nc(NC(=O)c2cccc(COc3ccccc3)n2)sc1C(=O)O,4.48,4.99,,
COc1ccc2c(c1)c(CC(=O)Nc1nc(CC(=O)NO)cs1)c(C)n2C(=O)c1ccc(Cl)cc1,2.8,1.28,,
CCc1cc(C(C)=O)c(O)cc1OCc1cccc(C(=O)N[C@H](C)C(=O)O)n1,,1.03,,
CCc1cc(C(C)=O)c(O)cc1OCc1cccc(C(=O)Nc2nc(CC(=O)O)cs2)c1,,0.63,,
CCc1cc(C(C)=O)c(O)cc1OCc1cccc(C(=O)NCCCCCC(=O)O)n1,,7.65,,
CCc1cc(C(C)=O)c(O)cc1OCc1cccc(C(=O)NC(Cc2cnc[nH]2)C(=O)OC)n1 (stereo not given),,9.07,,
CCc1cc(C(C)=O)c(O)cc1OCc1cccc(C(=O)NC(CO)CC(=O)O)n1 (stereo not given),,9.46,,
CCc1cc(C(C)=O)c(O)cc1OCc1cccc(C(=O)NC(C)C(=O)NO)n1 (stereo not given),,0.35,,

Compound,IC50 (Phosphodiesterase 1) [µM],IC50 [1] [µM],IC50 (Phosphodiesterase 3) [µM],EC50 (Rattus norvegicus) [µM]
O=C(NO)c1cccc(NC(=O)c2cccc(COc3ccccc3)n2)n1,> 10,1.47,,
O=C(O)CCC(C(=O)O)c1csc(NC(=O)c2cccc(COc3ccccc3)n2)n1 (stereo not given),> 10,10,,
CCCCC(C(=O)NO)c1csc(NC(=O)c2cccc(COc3ccccc3)n2)n1 (stereo not given),0.2,0.27,,
O=C(Cc1csc(NC(=O)c2cccc(COc3ccccc3)n2)n1)NO,0.92,0.19,> 10,3.9
CCc1cc(C(C)=O)c(O)cc1OCc1cccc(C(=O)NC(C(=O)OC)C(C)O)n1 (stereo not given),,3.35,,
CCc1cc(C(C)=O)c(O)cc1OCc1cccc(C(=O)NCC(O)c2ccc(O)cc2)n1 (stereo not given),,3.19,,
Cc1cccc(C(=O)Nc2nc(CC(=O)NO)cs2)c1Br,3.87,8.43,,
O=C(Cc1csc(NC(=O)COc2ccc(Cl)cc2)n1)NO,1.81,1.69,,
COc1cc(OC)c(OC)c(C(=O)Nc2nc(CC(=O)NO)cs2)c1,> 10,2.58,,
CCCCCCCC(=O)OCC(NC(=O)c1cccc(COc2cc(O)c(C(C)=O)cc2CC)n1)C(=O)O (stereo not given),,3.28,,
O=C(Cc1csc(NC(=O)c2cccc(SC(F)(F)F)c2)n1)NO,1.72,0.43,,
CCc1cc(C(C)=O)c(O)cc1OCc1cccc(C(=O)NC(CO)CCC(=O)OC)n1 (stereo not given),,2.64,,
CC(C)CC(C(=O)NO)c1csc(NC(=O)c2cccc(COc3ccccc3)n2)n1 (stereo not given),3.94,0.62,,
CCc1cc(C(C)=O)c(O)cc1OCc1cccc(C(=O)NC2COC(=O)C2)n1 (stereo not given),,7.82,,
O=C(Cc1csc(NC(=O)CCCCCc2ccccc2)n1)NO,4.5,1.9,,
CCc1cc(C(C)=O)c(O)cc1OCc1cccc(C(=O)NC(CO)C(=O)OCc2ccccc2)n1 (stereo not given),,8.62,,
CCCCCCC(C(=O)NO)c1csc(NC(=O)c2cccc(COc3ccccc3)n2)n1 (stereo not given),5.7,0.23,,
CCc1cc(C(C)=O)c(O)cc1OCc1cccc(C(=O)Nc2ccc(OCC(=O)O)cc2)n1,,3.1,,
CCc1cc(C(C)=O)c(O)cc1OCc1cccc(C(=O)NC(CO)CC(=O)OC)n1 (stereo not given),,3.1,,
CCc1cc(C(C)=O)c(O)cc1OCc1cccc(C(=O)NC(CO)(CO)CO)n1,,8.91,,
